25 compounds from patent US12570642B2, “GLP-IR modulating compounds” (Gilead Sciences, Inc., priority 2021, dated 2026) can be followed below.

The assay concerns the target GLP-1R (Homo sapiens, UniProt P43220). Briefly: GLP-1R Activation - cAMP Assay. In kind it is cell-based. To be noted: each compound run on one of the two cAMP assays (Assay 1 or Assay 2, not specified). In short, it runs like this: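 CHO cells stably expressing GLP-1R, plated at 1,000 cells/well overnight, then equilibrated 1 h in HBSS with 20 mM Hepes and 0.1% BSA. Agonist added as 10-point dose response for 30 min at 37 °C. cAMP measured by HTRF (Cisbio Gs Dynamic kit); EC50 from sigmoidal fit.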
On the technique in general: cAMP levels reflect the balance of adenylyl cyclase and phosphodiesterase activity.

Setting [1] is: cAMP increase in CHO cells stably expressing GLP-1R.

Structures are written as SMILES.

The term EC50 denotes the concentration at which the effect is half-maximal. Higher therefore signals lower potency in that assay.

Sequence of GLP-1R (P43220 24-463): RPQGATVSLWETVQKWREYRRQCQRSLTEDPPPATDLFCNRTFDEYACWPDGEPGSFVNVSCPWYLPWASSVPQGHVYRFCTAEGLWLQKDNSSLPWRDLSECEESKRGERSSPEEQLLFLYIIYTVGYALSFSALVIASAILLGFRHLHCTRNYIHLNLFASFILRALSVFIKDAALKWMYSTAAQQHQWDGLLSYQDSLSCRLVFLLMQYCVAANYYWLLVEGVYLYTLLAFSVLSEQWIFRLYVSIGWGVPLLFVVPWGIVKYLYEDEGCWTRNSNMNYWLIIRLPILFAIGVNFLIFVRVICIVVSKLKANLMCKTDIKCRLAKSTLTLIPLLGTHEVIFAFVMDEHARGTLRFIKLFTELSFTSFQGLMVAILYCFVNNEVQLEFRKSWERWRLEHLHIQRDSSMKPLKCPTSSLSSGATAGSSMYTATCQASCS

The compound `COCCn1c(Cc2cc(F)c(-c3cccc(OCc4ccc(-n5ccnc5)cc4F)n3)cc2F)nc2ccc(C(=O)O)cc21` [Example 61] yielded an EC50 under setting [1] of 0.83 nM.

Under setting [1], `COC[C@H]1COC[C@H]1n1c(Cc2cc(F)c(-c3cccc(OCc4ccc(C#N)cc4F)n3)cc2F)nc2ccc(C(=O)O)cc21` (single isomer, unassigned) [Example 176A] showed an EC50 of 0.085 nM.

With `CC1(C)COC[C@H]1n1c(Cc2cc(F)c(-c3ccnc(OCc4ccc(C#N)cc4F)n3)cc2F)nc2c(Cl)cc(C(=O)O)cc21` [Example 129, (S)-4-chloro-2-(4-(2-((4-cyano-2-fluorobenzyl)oxy)pyrimidin-4-yl)-2,5-difluorobenzyl)-1-(4,4-dimethyltetrahydrofuran-3-yl)-1H-benzo[d]imidazole-6-carboxylic Acid], the EC50 under setting [1] turned out to be 0.271 nM.

Take `COC(C)(C)C(C)n1c(Cc2cc(F)c(-c3cccc(OCc4ccc(Cl)cc4F)n3)cc2F)nc2ccc(C(=O)O)cc21` (stereo not shown) [Example 507, 2-(4-(6-((4-chloro-2-fluorobenzyl)oxy)pyridin-2-yl)-2,5-difluorobenzyl)-1-(3-methoxy-3-methylbutan-2-yl)-1H-benzo[d]imidazole-6-carboxylic acid]: a half-maximal response under setting [1] (EC50) required 0.351 nM.

Regarding `COc1cc(Cl)ncc1COc1nc(-c2cc(F)c(Cc3nc4c(F)cc(C(=O)O)cc4n3[C@@H]3COCC3(C)C)cc2F)ccc1F` [Example 340, (S)-2-(4-(6-((6-chloro-4-methoxypyridin-3-yl)methoxy)-5-fluoropyridin-2-yl)-2,5-difluorobenzyl)-1-(4,4-dimethyltetrahydrofuran-3-yl)-4-fluoro-1H-benzo[d]imidazole-6-carboxylic acid], it took 0.005 nM to reach a half-maximal effect under setting [1] (EC50).

The compound `CC1(C)COC[C@H]1n1c(Cc2cc(F)c(-c3cccc(OCc4cc(F)c(F)cc4Cl)n3)cc2F)nc2ccc(C(=O)O)cc21` [Example 454, (S)-2-(4-(6-((2-chloro-4,5-difluorobenzyl)oxy)pyridin-2-yl)-2,5-difluorobenzyl)-1-(4,4-dimethyltetrahydrofuran-3-yl)-1H-benzo[d]imidazole-6-carboxylic acid] returned an EC50 under setting [1] of 0.477 nM.

Consider `CC(=O)N1C[C@H](n2c(Cc3cc(F)c(-c4cccc(OCc5ccc(C#N)cc5F)n4)cc3F)nc3ccc(C(=O)O)cc32)C2(CC2)C1` [Example 14], for which the EC50 ([…]) was 78.7 nM.

Under setting [1], `COCCn1c(Cc2cc(F)c(-c3cccc(OCc4ccc(C(F)(F)F)nc4C)n3)cc2F)nc2ccc(C(=O)O)cc21` [Example 33, 2-(2,5-difluoro-4-(6-((2-methyl-6-(trifluoromethyl)pyridin-3-yl)methoxy)pyridin-2-yl)benzyl)-1-(2-methoxyethyl)-1H-benzo[d]imidazole-6-carboxylic Acid] had an EC50 of 2.58 nM.

For `CC1(C)COC[C@H]1n1c(Cc2cc(F)c(-c3ccc(F)c(OCc4ccccc4F)n3)cc2F)nc2ccc(C(=O)O)cc21` [Example 477, (S)-2-(2,5-difluoro-4-(5-fluoro-6-((2-fluorobenzyl)oxy)pyridin-2-yl)benzyl)-1-(4,4-dimethyltetrahydrofuran-3-yl)-1H-benzo[d]imidazole-6-carboxylic acid], under setting [1], the EC50 was determined as 0.171 nM.

The compound `CC1(C)COC[C@H]1n1c(Cc2ccc(-c3ccc(F)c(OCc4cnc(-n5ccnn5)cc4Cl)n3)cc2F)nc2c(F)cc(C(=O)O)cc21` [Example 154, (S)-2-(4-(6-((4-chloro-6-(1H-1,2,3-triazol-1-yl)pyridin-3-yl)methoxy)-5-fluoropyridin-2-yl)-2-fluorobenzyl)-1-(4,4-dimethyltetrahydrofuran-3-yl)-4-fluoro-1H-benzo[d]imidazole-6-carboxylic Acid] returned an EC50 under setting [1] of 0.034 nM.

As for `CN(C)C(=O)[C@@H]1COC[C@@H]1n1c(Cc2cc(F)c(-c3cccc(OCc4ccc(C#N)cc4F)n3)cc2F)nc2ccc(C(=O)O)cc21` (racemic) [Example 76, 2-(4-(6-((4-cyano-2-fluorobenzyl)oxy)pyridin-2-yl)-2,5-difluorobenzyl)-1-((3R,4S)-4-(dimethylcarbamoyl)tetrahydrofuran-3-yl)-1H-benzo[d]imidazole-6-carboxylic Acid], the half-maximal effective concentration (EC50) under setting [1] is 100 nM.

`CC1(C)COC[C@H]1n1c(Cc2c(F)cc(-c3ccc(F)c(OCc4ccc(C#N)cc4)n3)c(F)c2F)nc2c(F)cc(C(=O)O)cc21` [Example 316, (S)-2-(4-(6-((4-cyanobenzyl)oxy)-5-fluoropyridin-2-yl)-2,3,6-trifluorobenzyl)-1-(4,4-dimethyltetrahydrofuran-3-yl)-4-fluoro-1H-benzo[d]imidazole-6-carboxylic acid]: a half-maximal effect under setting [1] (EC50) was put at 0.14 nM.

Turning to `CC1(C)COC[C@H]1n1c(Cc2cc(F)c(-c3cccc(OCc4ccncc4F)n3)cc2F)nc2ccc(C(=O)O)cc21` [Example 429, (S)-2-(2,5-difluoro-4-(6-((3-fluoropyridin-4-yl)methoxy)pyridin-2-yl)benzyl)-1-(4,4-dimethyltetrahydrofuran-3-yl)-1H-benzo[d]imidazole-6-carboxylic acid], it took 0.139 nM to reach a half-maximal effect under setting [1] (EC50).

In turn, `O=C(O)c1ccc2nc(Cc3cc(F)c(-c4cccc(OCc5ccc(Cl)cc5F)n4)cc3F)n(C34COCC(C3)C4)c2c1` [Example 406, 1-(3-oxabicyclo[3.1.1]heptan-1-yl)-2-(4-(6-((4-chloro-2-fluorobenzyl)oxy)pyridin-2-yl)-2,5-difluorobenzyl)-1H-benzo[d]imidazole-6-carboxylic acid] came in with an EC50 under setting [1] of 10.8 nM.

As to `C[C@@H]1COC[C@H]1n1c(Cc2cc(F)c(-c3cccc(OCc4ccc(C#N)cc4F)n3)cc2F)nc2ccc(C(=O)O)cc21` (racemic) [Example 266, 2-(4-(6-((4-cyano-2-fluorobenzyl)oxy)pyridin-2-yl)-2,5-difluorobenzyl)-1-((3S,4S)-4-methyltetrahydrofuran-3-yl)-1H-benzo[d]imidazole-6-carboxylic acid], the EC50 under setting [1] was 0.363 nM.

`Cc1ncc(-c2ccc(COc3cccc(-c4cc(F)c(Cc5nc6ccc(C(=O)O)cc6n5[C@@H]5COCC5(C)C)cc4F)n3)c(F)c2)s1` [Example 444, (S)-2-(2,5-difluoro-4-(6-((2-fluoro-4-(2-methylthiazol-5-yl)benzyl)oxy)pyridin-2-yl)benzyl)-1-(4,4-dimethyltetrahydrofuran-3-yl)-1H-benzo[d]imidazole-6-carboxylic acid] returned an EC50 under setting [1] of 0.365 nM.

With `Cc1cc(Cc2nc3c(F)cc(C(=O)O)cc3n2[C@@H]2COCC2(C)C)c(Cl)cc1-c1ccc(F)c(OCc2ccc(C#N)cc2)n1` [Example 136, (S)-2-(2-chloro-4-(6-((4-cyanobenzyl)oxy)-5-fluoropyridin-2-yl)-5-methylbenzyl)-1-(4,4-dimethyltetrahydrofuran-3-yl)-4-fluoro-1H-benzo[d]imidazole-6-carboxylic Acid], under setting [1], a half-maximal effect (EC50) was put at 0.312 nM.

On to `CC(=O)N1C[C@@H](F)[C@H](n2c(Cc3cc(F)c(-c4cccc(OCc5ccc(C#N)cc5F)n4)cc3F)nc3ccc(C(=O)O)cc32)C1` [Example 40], for which a half-maximal response ([…]) (EC50) required 155 nM.

Under setting [1], `N#Cc1ccc(COc2cccc(-c3cc(F)c(Cc4nc5ccc(C(=O)O)cc5n4[C@@H]4COC[C@@H]4OC4CC4)cc3F)n2)c(F)c1` (racemic) [Example 411, 2-(4-(6-((4-cyano-2-fluorobenzyl)oxy)pyridin-2-yl)-2,5-difluorobenzyl)-1-((3R,4R)-4-cyclopropoxytetrahydrofuran-3-yl)-1H-benzo[d]imidazole-6-carboxylic acid] returned an EC50 of 1.33 nM.

In the case of `COCCn1c(Cc2cc(F)c(-c3cccc(OCc4cnc(-n5nnc6c5CCCC6)cc4Cl)n3)cc2F)nc2ccc(C(=O)O)cc21` [Example 568, 2-(4-(6-((4-chloro-6-(4,5,6,7-tetrahydro-1H-benzo[d][1,2,3]triazol-1-yl)pyridin-3-yl)methoxy)pyridin-2-yl)-2,5-difluorobenzyl)-1-(2-methoxyethyl)-1H-benzo[d]imidazole-6-carboxylic acid], under setting [1], the EC50 worked out at 1.56 nM.

In turn, `CC1(C)COC[C@H]1n1c(Cc2c(F)cc(-c3ccc(F)c(OCc4ccc(C#N)cc4)n3)c(F)c2F)nc2ccc(C(=O)O)cc21` [Example 283, (S)-2-(4-(6-((4-cyanobenzyl)oxy)-5-fluoropyridin-2-yl)-2,3,6-trifluorobenzyl)-1-(4,4-dimethyltetrahydrofuran-3-yl)-1H-benzo[d]imidazole-6-carboxylic acid] yielded an EC50 under setting [1] of 0.477 nM.

`CC1(C)COC[C@H]1n1c(Cc2cc(F)c(-c3cccc(OCc4ccc(C(F)(F)F)nn4)n3)cc2F)nc2ccc(C(=O)O)cc21` [Example 470, (S)-2-(2,5-difluoro-4-(6-((6-(trifluoromethyl)pyridazin-3-yl)methoxy)pyridin-2-yl)benzyl)-1-(4,4-dimethyltetrahydrofuran-3-yl)-1H-benzo[d]imidazole-6-carboxylic acid] returned an EC50 under setting [1] of 1.61 nM.

Compound `CC1(C)COC[C@H]1n1c(Cc2cc(F)c(-c3cccc(OCc4ccc(C#N)cc4)n3)cc2F)nc2cc(F)c(C(=O)O)cc21` [Example 418, (S)-2-(4-(6-((4-cyanobenzyl)oxy)pyridin-2-yl)-2,5-difluorobenzyl)-1-(4,4-dimethyltetrahydrofuran-3-yl)-5-fluoro-1H-benzo[d]imidazole-6-carboxylic acid] yielded a 50% effective concentration (EC50) under setting [1] of 0.199 nM.

Regarding `CC(C)COCCn1c(Cc2cc(F)c(-c3cccc(OCc4cnc(-n5ccnn5)cc4Cl)n3)cc2F)nc2ccc(C(=O)O)cc21` [Example 569, 2-(4-(6-((4-chloro-6-(1H-1,2,3-triazol-1-yl)pyridin-3-yl)methoxy)pyridin-2-yl)-2,5-difluorobenzyl)-1-(2-isobutoxyethyl)-1H-benzo[d]imidazole-6-carboxylic acid], under setting [1], the EC50 stood at 0.987 nM.

Regarding `CC1(C)COC[C@H]1n1c(Cc2c(F)cc(-c3ccnc(OCc4ccc(Cl)cc4F)n3)c(F)c2F)nc2c(F)cc(C(=O)O)cc21` [Example 196, (S)-2-(4-(2-((4-chloro-2-fluorobenzyl)oxy)pyrimidin-4-yl)-2,3,6-trifluorobenzyl)-1-(4,4-dimethyltetrahydrofuran-3-yl)-4-fluoro-1H-benzo[d]imidazole-6-carboxylic acid], the EC50 under setting [1] amounted to 0.508 nM.
